{
  "source": "paper PMC9718554",
  "about": "“Discovery of a fragment hit compound targeting D-Ala:D-Ala ligase of bacterial peptidoglycan biosynthesis” (Journal of Enzyme Inhibition and Medicinal Chemistry, 2022)",
  "key": {"[1]": {"test": "Solubility at tested concentrations (fragment library screening)", "type": "physicochemical", "description": "Supplement IENZ_A_2149745_SM2502.zip/DDlB_CDR05_SI_20221103.xlsx, sheet \"Fragment library screening\" | column: Solubility at tested concentrations"}, "[2]": {"molecular_target": "T1, E. coli DdlB enzyme (D-alanine:D-alanine ligase) (Escherichia coli, UniProt P07862)", "T1 construct": "made in house; host or cells: E. coli", "test": "biochemical", "details": "read-out: DdlB RA; for remaining activity at 2000 µM: tested concentration 2.0 mM; for remaining activity at 2100 µM: tested concentration 2.1 mM; for remaining activity at 1800 µM: tested concentration 1.8 mM; for remaining activity at 1700 µM: tested concentration 1.7 mM; for remaining activity at 2500 µM: residual activity of DdlB, fragment library screening, tested concentration 2.5 mM; for remaining activity at 2200 µM: tested concentration 2.2 mM; for remaining activity at 1900 µM: tested concentration 1.9 mM; for remaining activity at 2400 µM: tested concentration 2.4 mM"}},
  "note": "Like-named read-outs stand apart in the source and are kept apart here.",
  "data": [
    {"smiles": "COc1ccc(-c2ccc(C(=O)O)c(=O)[nH]2)cc1", "note": "[Compound D724-1039]", "values": [
      {"measurement": "Solubility at tested concentrations", "setting": "[1]; tested concentration 2.0 mM", "value": "not soluble"},
      {"measurement": "remaining activity at 2000 µM", "setting": "[2]; residual activity", "value": 76, "unit": "%"}
    ]},
    {"smiles": "COCCNc1c(-c2ccc(C)cc2)c(=O)c1=O", "note": "[Compound E470-0131]", "values": [
      {"measurement": "Solubility at tested concentrations", "setting": "[1]; tested concentration 2.0 mM", "value": "not soluble"},
      {"measurement": "remaining activity at 2000 µM", "setting": "[2]", "value": 78, "unit": "%"}
    ]},
    {"smiles": "CCC(C)(C)Nc1c(-c2ccccc2)c(=O)c1=O", "note": "[Compound E470-0411]", "values": [
      {"measurement": "Solubility at tested concentrations", "setting": "[1]; tested concentration 2.1 mM", "value": "not soluble"},
      {"measurement": "remaining activity at 2100 µM", "setting": "[2]", "value": 48, "unit": "%"}
    ]},
    {"smiles": "O=C(NC1CCCCC1)c1ccc2cccc(O)c2n1", "note": "[Compound G900-0104]", "values": [
      {"measurement": "Solubility at tested concentrations", "setting": "[1]; tested concentration 1.8 mM", "value": "not soluble"},
      {"measurement": "remaining activity at 1800 µM", "setting": "[2]; residual activity", "value": 80, "unit": "%"}
    ]},
    {"smiles": "CCc1cccc(NC(=O)c2ccc3cccc(O)c3n2)c1", "note": "[Compound G900-0169]", "values": [
      {"measurement": "Solubility at tested concentrations", "setting": "[1]; tested concentration 1.7 mM", "value": "not soluble"},
      {"measurement": "remaining activity at 1700 µM", "setting": "[2]", "value": 69, "unit": "%"}
    ]},
    {"smiles": "Cc1cc(C)cc(NC(=O)c2ccc3cccc(O)c3n2)c1", "note": "[Compound G900-0230]", "values": [
      {"measurement": "Solubility at tested concentrations", "setting": "[1]; tested concentration 1.7 mM", "value": "not soluble"},
      {"measurement": "remaining activity at 1700 µM", "setting": "[2]", "value": 92, "unit": "%"}
    ]},
    {"smiles": "OCc1ccncc1", "note": "[FLD197]", "values": [
      {"measurement": "remaining activity at 2500 µM", "setting": "[2]", "value": 100, "unit": "%"}
    ]},
    {"smiles": "Cn1c(C(=O)O)cc2ccccc21", "note": "[FLD198]", "values": [
      {"measurement": "remaining activity at 2500 µM", "setting": "[2]", "value": 79, "unit": "%"}
    ]},
    {"smiles": "Nc1cccc(F)n1", "note": "[FLD199]", "values": [
      {"measurement": "remaining activity at 2500 µM", "setting": "[2]", "value": 91, "unit": "%"}
    ]},
    {"smiles": "OCc1cccs1", "note": "[FLD200]", "values": [
      {"measurement": "remaining activity at 2500 µM", "setting": "[2]", "value": 95, "unit": "%"}
    ]},
    {"smiles": "Cc1ncc(CO)c(C2CCCN(C(=O)C(C)C)C2)n1", "note": "(stereo not drawn) [SA04-1071]", "values": [
      {"measurement": "remaining activity at 2200 µM", "setting": "[2]; residual activity", "value": 95, "unit": "%"}
    ]},
    {"smiles": "CCS(=O)(=O)N1CC2(CC(N3CCCC3)CO2)C1", "note": "(stereo not drawn) [SA46-1771]", "values": [
      {"measurement": "remaining activity at 1800 µM", "setting": "[2]; residual activity", "value": 90, "unit": "%"}
    ]},
    {"smiles": "C1CNCC(CCc2noc(C3CCOCC3)n2)C1", "note": "(stereo not drawn) [SA66-1056]", "values": [
      {"measurement": "remaining activity at 1800 µM", "setting": "[2]; residual activity", "value": 94, "unit": "%"}
    ]},
    {"smiles": "CC(=O)N1CCC(CCc2noc(C)n2)C1", "note": "(stereo not drawn) [SA67-1016]", "values": [
      {"measurement": "remaining activity at 2700 µM", "setting": "[2]; tested concentration 2.7 mM", "value": 93, "unit": "%"}
    ]},
    {"smiles": "CC(=O)N1CC(=O)N(CCc2ccccc2)CC(O)C1", "note": "(stereo not drawn) [SA85-1024]", "values": [
      {"measurement": "remaining activity at 2200 µM", "setting": "[2]; residual activity", "value": 95, "unit": "%"}
    ]},
    {"smiles": "CC(C)CN1CC(O)CN(C(=O)C2CCC2)CC1=O", "note": "(stereo not drawn) [SA85-1056]", "values": [
      {"measurement": "remaining activity at 2200 µM", "setting": "[2]; residual activity", "value": 97, "unit": "%"}
    ]},
    {"smiles": "O=C(NCc1ccccc1)C1(F)CCNC1", "note": "(stereo not drawn) [SA94-0001]", "values": [
      {"measurement": "remaining activity at 1900 µM", "setting": "[2]", "value": 97, "unit": "%"}
    ]},
    {"smiles": "Cc1n[nH]c([C@@H]2CC(F)(F)CN2C2CCCCCC2)n1", "note": "[SB35-1022]", "values": [
      {"measurement": "remaining activity at 1900 µM", "setting": "[2]; residual activity", "value": 97, "unit": "%"}
    ]},
    {"smiles": "CC(C)CCN1C[C@@H]2CN(C)C(=O)[C@H](C)N2C1=O", "note": "[SB41-0167]", "values": [
      {"measurement": "remaining activity at 2400 µM", "setting": "[2]", "value": 85, "unit": "%"}
    ]},
    {"smiles": "CC(=O)N1CC(c2nc(C)no2)C2(CNC2)C1", "note": "(stereo not drawn) [SB57-1191]", "values": [
      {"measurement": "remaining activity at 2200 µM", "setting": "[2]", "value": 69, "unit": "%"}
    ]},
    {"smiles": "O=C1C[C@H]2CN(S(=O)(=O)c3ccccc3)C[C@H]2CN1", "note": "[SB76-0562]", "values": [
      {"measurement": "remaining activity at 2100 µM", "setting": "[2]; residual activity", "value": 86, "unit": "%"}
    ]},
    {"smiles": "Cc1nc(CCOC2CCCNC2)no1", "note": "(stereo not drawn) [SC04-0106]", "values": [
      {"measurement": "remaining activity at 2400 µM", "setting": "[2]", "value": 95, "unit": "%"}
    ]},
    {"smiles": "O=C1Cn2nnc(CNC(=O)NC3CCCC3)c2CN1", "note": "[SC45-0107]", "values": [
      {"measurement": "remaining activity at 2200 µM", "setting": "[2]; residual activity", "value": 93, "unit": "%"}
    ]},
    {"smiles": "O=C(C1CC1)N1CC(c2n[nH]c(C3CC3)n2)C2(CCC2)C1", "note": "(stereo not drawn) [SC70-0192]", "values": [
      {"measurement": "remaining activity at 1700 µM", "setting": "[2]; residual activity", "value": 95, "unit": "%"}
    ]},
    {"smiles": "COCCn1nc(-c2cocn2)c2c1CCN(C(C)C)C2", "note": "[SD01-0107]", "values": [
      {"measurement": "remaining activity at 1700 µM", "setting": "[2]; residual activity", "value": 92, "unit": "%"}
    ]},
    {"smiles": "Cn1nc(CCC(=O)NC2CCCC2)c2c1CCOC2", "note": "[SD48-0064]", "values": [
      {"measurement": "remaining activity at 2200 µM", "setting": "[2]; residual activity", "value": 102, "unit": "%"}
    ]},
    {"smiles": "Cn1nc(CCC(=O)N2CCNC(=O)C2)c2c1CCOC2", "note": "[SD48-0069]", "values": [
      {"measurement": "remaining activity at 2100 µM", "setting": "[2]; residual activity", "value": 99, "unit": "%"}
    ]}
  ]
}
